For series [1], the system named is Escherichia coli. The series is described as follows: Induction of membrane permeabilization in Escherichia coli BW25113 at 1 uM incubated for 30 mins by ONPG/beta-galactosidase assay. Format: functional, organism-based.
The subject of series [2] is Klebsiella pneumoniae. Put plainly: Bactericidal activity against Klebsiella pneumoniae 700603 assessed as prevention visible bacterial growth incubated for 18 hrs. In kind it is functional. Conditions: Klebsiella pneumoniae, 700603, 18 h.
Series [3] concerns Escherichia coli. Put plainly: Antibacterial activity against Escherichia coli BW25113 assessed as prevention visible bacterial growth incubated for 18 hrs. Format: functional. Conditions: BW25113, 18 h.
The subject of series [4] is Escherichia coli. Put plainly: Antibacterial activity against Escherichia coli ATCC 25922 assessed as prevention visible bacterial growth incubated for 18 hrs in presence of 10% (v/v) human serum in full MH medium. In kind it is functional. Conditions: ATCC 25922, 18 h.
For series [5], the system named is Klebsiella pneumoniae. Put plainly: Antibacterial activity against Klebsiella pneumoniae 700603 assessed as prevention visible bacterial growth incubated for 18 hrs. In kind it is functional. Conditions: Klebsiella pneumoniae, 700603, 18 h.
Series [6] deals with Escherichia coli. Put plainly: Bactericidal activity against Escherichia coli ATCC 25922 assessed as prevention visible bacterial growth incubated for 18 hrs. Format: functional. Particulars: ATCC 25922, 18 h.
Series [7] concerns Escherichia coli. Put plainly: Bactericidal activity against Escherichia coli BW25113 expressing delta sbmA mutation assessed as prevention visible bacterial growth incubated for 18 hrs. Format: functional. Conditions: BW25113, 18 h.
Series [8] has as its system Escherichia coli. Put plainly: Antibacterial activity against Escherichia coli ATCC 25922 assessed as prevention visible bacterial growth incubated for 18 hrs. In kind it is functional. Conditions: ATCC 25922, 18 h.
The test system of series [9] is Escherichia coli. The series is described as follows: Bactericidal activity against Escherichia coli BW25113 assessed as prevention visible bacterial growth incubated for 18 hrs. Format: functional. Conditions: BW25113, 18 h.
The subject of series [10] is Escherichia coli. The series is described as follows: Antibacterial activity against Escherichia coli BW25113 expressing delta sbmA mutation assessed as prevention visible bacterial growth incubated for 18 hrs. Particulars: BW25113, 18 h. In kind it is functional.
Series [11] can be described thus: Cytotoxicity in human MEC1 cells assessed as reduction in cell viability incubated for 20 hrs by MTT assay. In kind it is cell-based. (In general: Tetrazolium assays rely on reduction of a dye to a coloured formazan, in cell work by metabolically active cells.)
Series [12] relates to Staphylococcus aureus. Put plainly: Bactericidal activity against Staphylococcus aureus ATCC 25923 assessed as prevention visible bacterial growth incubated for 18 hrs. Format: functional. Conditions: ATCC 25923, 18 h.
Series [13] concerns Escherichia coli. Put plainly: Antibacterial activity against Escherichia coli clinical isolates assessed as prevention visible bacterial growth incubated for 18 hrs. Format: functional.
Series [14] relates to Pseudomonas aeruginosa. Put plainly: Bactericidal activity against Pseudomonas aeruginosa ATCC 27853 assessed as prevention visible bacterial growth incubated for 18 hrs. Format: functional. Particulars: ATCC 27853, 18 h.
Series [15] concerns Escherichia coli. The series is described as follows: Induction of membrane permeabilization in Escherichia coli BW25113 at 1 to 2 uM incubated for 30 mins by ONPG/beta-galactosidase assay. Format: functional, organism-based.
In series [16] the test system is Acinetobacter baumannii. The series is described as follows: Bactericidal activity against Acinetobacter baumannii ATCC 19606 assessed as prevention visible bacterial growth incubated for 18 hrs. Particulars: ATCC 19606 = CIP 70.34 = JCM 6841, 18 h. Format: functional.
Series [17] deals with Pseudomonas aeruginosa. Put plainly: Antibacterial activity against Pseudomonas aeruginosa ATCC 27853 assessed as prevention visible bacterial growth incubated for 18 hrs. Format: functional. Conditions: ATCC 27853, 18 h.
Series [18] relates to Staphylococcus aureus. Put plainly: Antibacterial activity against Staphylococcus aureus ATCC 25923 assessed as prevention visible bacterial growth incubated for 18 hrs. In kind it is functional. Particulars: ATCC 25923, 18 h.
The subject of series [19] is Acinetobacter baumannii. Put plainly: Antibacterial activity against Acinetobacter baumannii ATCC 19606 assessed as prevention visible bacterial growth incubated for 18 hrs. Format: functional. Particulars: ATCC 19606 = CIP 70.34 = JCM 6841, 18 h.
The subject of series [20] is Escherichia coli. Put plainly: Induction of membrane permeabilization in Escherichia coli BW25113 at 1 to 16 uM incubated for 30 mins by ONPG/beta-galactosidase assay. Format: functional, organism-based.
Series [21] has as its system Escherichia coli. Put plainly: Ratio of MBC for antibacterial activity against Escherichia coli BW25113 expressing delta sbmA mutation to MBC for antibacterial activity against wild type Escherichia coli BW25113. Format: functional.
Series [22] concerns Escherichia coli. The series is described as follows: Ratio of MIC for antibacterial activity against Escherichia coli BW25113 expressing delta sbmA mutation to MIC for antibacterial activity against wild type Escherichia coli BW25113. In kind it is functional.
Series [23] has as its system Escherichia coli. Put plainly: Induction of membrane permeabilization in Escherichia coli BW25113 at 1 to 16 uM incubated for 30 mins by propidium iodide uptake based flow cytometry. In kind it is functional, organism-based. Background: In flow cytometry, cells or beads pass a laser one at a time.
Series [24] has as its system Escherichia coli. Put plainly: Inhibition of in-vitro transcription/translation in Escherichia coli lysates at 1 uM incubated for 1 hr by luciferase reporter gene assay relative to control. In kind it is functional. A general note: Reporter assays use an easily measured gene product as a stand-in for the process of interest.
Series [25] concerns Escherichia coli. The series is described as follows: Induction of membrane permeabilization in Escherichia coli BW25113 at 8 to 16 uM incubated for 30 mins by propidium iodide uptake based flow cytometry. Format: functional, organism-based.
In series [26] the test system is Escherichia coli. Put plainly: Induction of membrane permeabilization in Escherichia coli BW25113 at 16 uM incubated for 30 mins by ONPG/beta-galactosidase assay relative to 1 uM colistin. Format: functional.
Series [27] has as its system Escherichia coli. Put plainly: Induction of membrane permeabilization in Escherichia coli BW25113 at 8 to 16 uM incubated for 30 mins by ONPG/beta-galactosidase assay. Format: functional, organism-based.
For series [28], the system named is Escherichia coli. Put plainly: Antibacterial activity against Escherichia coli isolate EURL-VTEC C07 assessed as prevention visible bacterial growth incubated for 18 hrs. In kind it is functional. Conditions: isolate EURL-VTEC C07, 18 h.
Series [29] concerns Escherichia coli. Put plainly: Induction of membrane permeabilization in Escherichia coli BW25113 at 4 uM incubated for 30 mins by propidium iodide uptake based flow cytometry. Format: functional, organism-based.
Series [30] relates to Escherichia coli. Put plainly: Induction of membrane permeabilization in Escherichia coli BW25113 at 4 uM incubated for 30 mins by ONPG/beta-galactosidase assay. Format: functional, organism-based.

The source made the active and inactive calls. A value given as a limit tells only on which side of the number the result lay.

Broadly, the MBC is the smallest concentration meeting the test's criterion for killing. One may read the MIC99 as the lowest concentration that inhibits either 99% of growth or 99% of the strains tested, depending on the study. The term MIC denotes the lowest concentration found to suppress growth. Usually CC50 stands for the concentration at which the toxic effect on the cells reaches its halfway point.

With COLISTIN, in series [1], the outcome was Active.
Regarding H-RRIRPRPPRLPRPRPR-OH, the MBC in series [2] was 64 µM; in [6], 2 µM; in [7] it was 64 µM; in series [9], 4 µM; in [12] it was > 64 µM; in series [14], > 64 µM. Also, the MBC in [16] was > 64 µM. Moreover, the MIC99 in [3] was 2 to 8 µM; in series [5] it was 4 µM; in series [8], 1 µM; in series [10] it was 16 µM; in series [13], > 1 µM; in series [17], > 64 µM. Moreover, the MIC99 in [18] was > 64 µM; in [19], 32 µM. The MIC in [4] was 1 µM. For the same substance, the CC50 at 20 h in series [11] is > 64 µM. Moreover, the result in series [15] was inactive.
Turning to H-RRIRPRPPRLPRPRWR-OH, the MBC in series [2] is 16 µM; in [6], 2 µM; in series [7], 16 µM; in series [9], 8 µM; in [12] it was > 64 µM; in series [14], 32 µM. Moreover, in series [16], the MBC was 24 µM. Moreover, the MIC99 is 1 to 4 µM in series [3]; 2 µM in [5]; 1 µM in [8]; 4 µM in series [10]; > 1 µM in series [13]; > 64 µM in [17]. For the same substance, the MIC99 in series [18] was > 64 µM; in series [19] it was 12 µM. Also, the MIC in [4] was 1.5 µM. For the same substance, the outcome in series [20], in series [23] and in series [15] was inactive. Further, the Ratio in [21] and in [22] was 2 - 4 each time. For the same substance, the inhibition entry in [24] was “Active”. The CC50 at 20 h in [11] is > 64 µM.
As to H-WRIRPRPPRLPRPRPR-OH, the MBC was 64 µM in series [2]; 2 µM in series [6]; 32 µM in [7]; 1 µM in series [9]; > 64 µM in [12]; > 64 µM in series [14]. Also, the MBC in series [16] amounted to 64 µM. Also, the MIC99 is 1 to 2 µM in [3]; 16 µM in series [5]; 1 µM in [8]; 12 µM in series [10]; > 1 µM in series [13]; > 64 µM in series [17]. For the same substance, the MIC99 is > 64 µM in [18] and 32 µM in [19]. Further, the MIC in series [4] amounted to 1 µM. Besides, the outcome in series [20], in series [23] and in series [15] was inactive. Further, the inhibition entry in series [24] is “Active”. In addition, in series [11], the CC50 at 20 h is > 64 µM.
For H-WRIRPRPPRLPRWRPR-OH, the minimum bactericidal concentration (MBC) in [2] is 32 µM; in [6], 2 µM; in series [7], 32 µM; in [9], 4 µM; in series [12], > 64 µM; in series [14] it was > 64 µM. For the same substance, in [16], the MBC was found to be 64 µM. Moreover, the MIC99 in [3] was 2 µM; in series [5] it was 8 µM; in series [8], 1.5 µM; in series [10], 16 µM; in series [13], > 1 µM; in [17] it was > 64 µM. In addition, the MIC99 in series [18] was > 64 µM; in series [19] it was 32 µM. Besides, the minimum inhibitory concentration (MIC) in series [4] stood at 2 µM. The inhibition result in series [24] was “Active”. In series [11], the CC50 at 20 h was > 64 µM. Also, in series [15], the result was inactive.
In the case of H-WRIRRRPPRLPRPRWR-OH, the MBC in series [2] is 32 µM; in [6], 2 µM; in [7], 4 µM; in series [9] it was 8 µM; in series [12] it was > 64 µM; in series [14], 64 µM. In addition, the MBC in series [16] was 32 µM. In addition, the MIC99 in series [3] was 1 µM; in series [5] it was 4 µM; in series [8], 1 µM; in series [10], 3 µM; in series [13], > 1 µM; in series [17] it was 64 µM. For the same substance, the MIC99 in series [18] and in series [19] was 32 µM in each case. The MIC in [4] is 6 µM. The Ratio in series [21] and in series [22] was 2 - 4 throughout. Also, the result in series [25] and in [27] was Active. In series [24], the inhibition entry is “Active”. For the same substance, in series [11], the CC50 at 20 h is > 64 µM. In series [26], this substance registered an Activity of 30%. The outcome in [15] was inactive.
For the substance H-WRIRRRWPRLPRPRWR-OH, the MBC in series [2] is 8 µM; in [6], 2 µM; in [7], 4 µM; in series [9] it was 4 µM; in [12], > 64 µM; in series [14], > 64 µM. In addition, the MBC in [16] is 8 µM. Also, the MIC99 in [3] is 2 µM; in series [5], 2 µM; in series [28], 2 µM; in series [8], 1 µM; in series [10], 4 µM; in series [13], > 1 µM. The MIC99 in [17] stood at 32 µM; in series [18], 12 µM; in [19] it was 4 µM. Besides, the MIC in series [4] is 3 µM. Moreover, the Ratio in series [21] and in series [22] was 2 - 4 throughout. Besides, the result in [29], in series [25], in series [30] and in series [27] was Active. Also, the inhibition entry in series [24] is “Active”. The CC50 at 20 h in series [11] was > 64 µM. The substance also gave an Activity in series [26] of 30%. The outcome in series [15] was inactive.

Source of the values: ChEMBL document CHEMBL4622980, “Peptide Inhibitors of Bacterial Protein Synthesis with Broad Spectrum and SbmA-Independent Bactericidal Activity against Clinical Pathogens” (J Med Chem, 2020).
